Reference: the Deep4Chem optical property database

Assay: solvent given as SMILES

SMILES: N#C/C(=C\c1ccc(C#N)cc1)c1nc(-c2ccc(Cl)cc2)c(-c2ccccc2)s1
- emission maximum (in CC#N): 522 nm

SMILES: c1cc2ccc3ccc4cc3c2cc1CCCCCCc1ccc2ccc3ccc-4cc3c2c1
- emission maximum (in Cc1ccccc1): 376 nm

SMILES: CSc1ccc(/C=C/c2ccncn2)cc1
- emission maximum (in ClCCl): 435 nm

SMILES: CCNc1cc2oc3c/c(=[NH+]\CC)c(C)cc-3c(-c3ccccc3C(=O)OCC)c2cc1C
- emission maximum (in CC#N): 552 nm
- emission maximum (in CCO): 552 nm
- emission maximum (in CN(C)C=O): 532 nm
- emission maximum (in CO): 555 nm
- emission maximum (in O): 554 nm

SMILES: CN(C)c1ccc2nc(/C=C/c3cc4c5c(c3)CCCN5CCC4)c(=O)oc2c1
- emission maximum (in C1CCCCC1): 543 nm
- emission maximum (in C1COCCO1): 611 nm
- emission maximum (in CC#N): 709 nm
- emission maximum (in CC(C)=O): 679 nm
- emission maximum (in CCCCCCC): 540 nm
- emission maximum (in CCO): 705 nm
- emission maximum (in CCOC(C)=O): 628 nm
- emission maximum (in CN(C)C=O): 704 nm
- emission maximum (in CS(C)=O): 715 nm
- emission maximum (in Cc1ccccc1): 596 nm
- emission maximum (in ClC(Cl)Cl): 671 nm
- emission maximum (in ClCCl): 678 nm

SMILES: C1=C(c2ccccc2)C=C(c2ccccc2)/C1=C/c1ccc(-c2cccs2)s1
- emission maximum (in C1CCOC1): 503 nm

SMILES: COc1ccccc1-c1nc2c3cccnc3c3ncccc3c2n1-c1ccccc1
- emission maximum (in Cc1ccccc1): 396 nm

SMILES: CC(C)c1cc(C(C)C)c(B2c3ccccc3Oc3cc(N4c5ccccc5C(C)(C)c5ccccc54)ccc32)c(C(C)C)c1
- emission maximum (in Cc1ccccc1): 475 nm

SMILES: COc1cccc(-n2c(-c3ccc(O)cc3)nc(C)c2C)c1
- emission maximum (in C1COCCO1): 368 nm
- emission maximum (in CC#N): 364 nm
- emission maximum (in CCCCCC): 370 nm
- emission maximum (in CCCCO): 371 nm
- emission maximum (in CCO): 372 nm
- emission maximum (in CCOC(C)=O): 368 nm
- emission maximum (in CO): 369 nm
- emission maximum (in ClC(Cl)Cl): 372 nm
- emission maximum (in ClCCl): 369 nm
- emission maximum (in c1ccccc1): 371 nm

SMILES: COc1cc(C2=c3c(c4ccc(C(C)(C)C)cc4c4c(OC)c(OC)c(OC)cc34)=[N+]3C2=Nc2c(-c4cc(OC)c(OC)c(OC)c4)c4c5cc(OC)c(OC)c(OC)c5c5cc(C(C)(C)C)ccc5c4n2[B-]3(F)F)cc(OC)c1OC
- emission maximum (in Cc1ccccc1): 820 nm

SMILES: FC(F)(F)c1ccc(C2=CC3=c4cc(-c5ccc(C(F)(F)F)cc5)c5nc(C(F)(F)C(F)(F)C(F)(F)F)nc6c(-c7ccc(C(F)(F)F)cc7)cc(c4c65)C4=CC(c5ccc(C(F)(F)F)cc5)=C5N=C(C(F)(F)C(F)(F)C(F)(F)F)N=C2C5C43)cc1 (centres undefined)
- emission maximum (in C1CCOC1): 512 nm

SMILES: Nc1cc2nc3cc(F)c(F)cc3nc2cc1N
- emission maximum (in CCO): 537 nm

SMILES: O=[N+]([O-])c1ccc(N/C=C/C=[NH+]c2ccc([N+](=O)[O-])cc2)cc1
- emission maximum (in CS(C)=O): 508 nm

SMILES: COc1cc2c(cc1OC)C1=C[C@H](c3ccccc3)C3(C(C#N)=C(C#N)N1CC2)c1ccccc1-c1ccccc13
- emission maximum (in ClCCl): 410 nm

SMILES: N#Cc1c(N2CCCCC2)cc(-c2ccc(-c3ccccc3)s2)c2c1CCc1ccccc1-2
- emission maximum (in C1CCOC1): 515 nm

SMILES: CCCCC[n+]1ccc(/C=C/c2ccc(N(C)C)c3ccccc23)c2ccccc21
- emission maximum (in C1CCOC1): 697 nm
- emission maximum (in C1COCCO1): 680 nm
- emission maximum (in CC#N): 720 nm
- emission maximum (in CC(C)=O): 714 nm
- emission maximum (in CCCCO): 695 nm
- emission maximum (in CCO): 670 nm
- emission maximum (in CN(C)C=O): 721 nm
- emission maximum (in CO): 708 nm
- emission maximum (in CS(C)=O): 720 nm
- emission maximum (in O): 697 nm
- emission maximum (in c1ccccc1): 675 nm
- emission maximum (in c1ccncc1): 706 nm

SMILES: CCCCc1cc2cccc[n+]2[b-]2c(-c3cccc4[b-]3[n+]3ccccc3cc4CCCC)cccc21
- emission maximum (in C1CCCCC1): 451 nm

SMILES: COC(=O)C(NC(=O)OC(C)(C)C)c1ccc2oc(-c3cc(OC)ccc3OC)nc2c1 (centres undefined)
- emission maximum (in CC1CCCCC1): 364 nm
- emission maximum (in CC#N): 390 nm
- emission maximum (in CO): 405 nm

SMILES: Nc1cc2nc3cc(Cl)c(Cl)cc3nc2cc1N
- emission maximum (in CCO): 549 nm

SMILES: Cc1nc2c(ccc3c2sc(/C=C/c2ccc(N(CCO)CCO)cc2)[n+]3C)s1
- emission maximum (in CO): 601 nm
- emission maximum (in ClC(Cl)Cl): 603 nm

SMILES: C[Si](C)(c1cccc2cc3ccccc3cc12)[Si](C)(C)c1cccc2cc3ccccc3cc12
- emission maximum (in C1CCCCC1): 412 nm
- emission maximum (in CC#N): 412 nm

SMILES: ClP1(Cl)=N[P@@](Cl)(Oc2ccc3ccc4cccc5ccc2c3c45)=N[P@@](Cl)(Oc2ccc3ccc4cccc5ccc2c3c45)=N1
- emission maximum (in ClCCl): 455 nm

SMILES: CCn1c2ccccc2c2cc(-c3cc(-c4ccc5c(c4)c4ccccc4n5CC)nc(-c4ccccc4)n3)ccc21
- emission maximum (in C1CCOC1): 391 nm
- emission maximum (in CCOC(C)=O): 389 nm
- emission maximum (in CN(C)C=O): 415 nm
- emission maximum (in Cc1ccccc1): 380 nm
- emission maximum (in ClCCl): 405 nm

SMILES: N#C/C(=C\c1ccc(C=C(c2ccccc2)c2ccccc2)cc1)c1ccccc1
- emission maximum (in C1CCOC1): 468 nm

SMILES: O=C1OC(c2ccccc2)=N/C1=C\c1ccccc1
- emission maximum (in C1COCCO1): 447 nm

SMILES: O=[N+]([O-])c1ccc(/C2=C3N=C(C(c4ccccc4)=C/3c3ccccc3)/C(c3ccc([N+](=O)[O-])cc3)=c3\[nH]/c(c(-c4ccccc4)c3-c3ccccc3)=C(/c3ccc([N+](=O)[O-])cc3)C3=N/C(=C(/c4ccc([N+](=O)[O-])cc4)c4[nH]c2c(-c2ccccc2)c4-c2ccccc2)C(c2ccccc2)=C3c2ccccc2)cc1
- emission maximum (in ClCCl): 745 nm

SMILES: c1ccc(Nc2nc(Nc3ccccc3)nc(Nc3ccc4c5cccc6cccc(c7cccc3c74)c65)n2)cc1
- emission maximum (in C1COCCO1): 487 nm
- emission maximum (in CC#N): 492 nm
- emission maximum (in CCCCOCCCC): 486 nm
- emission maximum (in CCOC(C)=O): 488 nm

SMILES: CCOC(=O)c1cc(C(=O)OCC)c2cc(O)ccc2n1
- emission maximum (in CCO): 466 nm

SMILES: COC(=O)c1nc(Cl)c(-c2ccccc2)o1
- emission maximum (in C1CCCCC1): 344 nm

SMILES: CC(C)c1cccc(C(C)C)c1N1C(=O)c2cccc3c(Oc4ccc(C(C)(C)c5ccccc5)cc4)ccc(c23)C1=O
- emission maximum (in ClCCl): 435 nm

SMILES: FC(F)(F)c1ccc(/C=C/c2ccc(-c3nnc(-c4ccc(-c5cc6ccccc6s5)cc4)o3)cc2)cc1
- emission maximum (in CC#N): 388 nm
- emission maximum (in CC(C)=O): 390 nm
- emission maximum (in CCCCCCCC): 387 nm
- emission maximum (in CCCCCCCCCCO): 395 nm
- emission maximum (in CCCCCCCCO): 394 nm
- emission maximum (in CCCCCO): 393 nm
- emission maximum (in CCCO): 391 nm
- emission maximum (in CN(C)C=O): 416 nm
- emission maximum (in CO): 389 nm
- emission maximum (in CS(C)=O): 397 nm

SMILES: Cc1ccc2nc3[nH]c(=O)[nH]c(=O)c3nc2c1C
- emission maximum (in CC#N): 469 nm

SMILES: CC[Si](C)(C)c1cc2ccc3cccc4ccc(c1C(=O)NC(C)(C)C)c2c34
- emission maximum (in ClC(Cl)Cl): 383 nm

SMILES: CN(C)c1ccc(C2=Nc3sc4cc(C(F)(F)F)ccc4[n+]3[B-](F)(F)O2)cc1
- emission maximum (in C1CCOC1): 486 nm
- emission maximum (in CC#N): 500 nm
- emission maximum (in CC(C)=O): 495 nm
- emission maximum (in Cc1ccccc1): 460 nm
- emission maximum (in ClCCl): 478 nm

SMILES: CN(C)c1ccc2nc(/C=C/c3ccccc3)c(=O)oc2c1
- emission maximum (in C1CCCCC1): 488 nm
- emission maximum (in C1COCCO1): 533 nm
- emission maximum (in CC#N): 567 nm
- emission maximum (in CC(C)=O): 557 nm
- emission maximum (in CCCCCCC): 485 nm
- emission maximum (in CCO): 574 nm
- emission maximum (in CCOC(C)=O): 541 nm
- emission maximum (in CN(C)C=O): 571 nm
- emission maximum (in CS(C)=O): 581 nm
- emission maximum (in Cc1ccccc1): 523 nm
- emission maximum (in ClC(Cl)Cl): 542 nm
- emission maximum (in ClCCl): 547 nm

SMILES: COc1ccc(-c2nc(-c3ccccc3)c(N(c3ccccc3)c3ccccc3)s2)cc1
- emission maximum (in ClC(Cl)Cl): 457 nm

SMILES: CCCCCCOc1cc(C=O)c(OCCCCCC)cc1C=O
- emission maximum (in ClCCl): 467 nm

SMILES: O=C1CCCC2=C1CC1=C(CCCC1=O)N2NC(=O)c1ccc(O)cc1
- emission maximum (in CC#N): 434 nm
- emission maximum (in CC(C)=O): 432 nm
- emission maximum (in CCCCCO): 447 nm
- emission maximum (in CO): 449 nm
- emission maximum (in ClC(Cl)Cl): 444 nm
- emission maximum (in ClCCl): 436 nm

SMILES: CCCCCC(=O)c1cccc2sc3c(c12)P(=O)(c1ccccc1)c1ccccc1-3 (centres undefined)
- emission maximum (in ClCCl): 427 nm

SMILES: COc1cc(/C=C/c2cc(OC)c(-c3nc(-c4ccccc4)c(-c4ccccc4)[nH]3)cc2OC)c(OC)cc1/C=C/c1cc(OC)c(-c2nc(-c3ccccc3)c(-c3ccccc3)[nH]2)cc1OC
- emission maximum (in C1CCOC1): 510 nm
- emission maximum (in CC#N): 515 nm
- emission maximum (in CN(C)C=O): 512 nm
- emission maximum (in Cc1ccccc1): 502 nm

SMILES: COc1ccc2oc(-c3cc4cc(OC)ccc4oc3=O)cc2c1
- emission maximum (in CC#N): 480 nm
- emission maximum (in CCOC(C)=O): 443 nm
- emission maximum (in CS(C)=O): 484 nm
- emission maximum (in Cc1ccccc1): 446 nm

SMILES: Cc1ccc(C)n1-c1ccc(N(C)C)cc1
- emission maximum (in CC#N): 360 nm
- emission maximum (in CCCCCC): 347 nm

SMILES: Cc1ccc(C2=Cc3c4ccccc4cc[n+]3[B-](F)(F)O2)cc1
- emission maximum (in ClC(Cl)Cl): 471 nm

SMILES: c1ccc(N2c3ccc4ccccc4c3-c3c4ccccc4cn[n+]3[B-]2(c2ccccc2)c2ccccc2)cc1
- emission maximum (in Cc1ccccc1): 657 nm

SMILES: CC1(C)c2ccccc2N(c2ccc(-c3ccc(C#N)nc3)cc2)c2ccccc21
- emission maximum (in Cc1ccccc1): 488 nm
- emission maximum (in N#Cc1ccc2c(c1)c1ccccc1n2-c1cccc(-n2c3ccccc3c3ccccc32)c1): 490 nm

SMILES: c1ccc(-c2nc(-c3c[nH]c4ccccc34)n3ccccc23)cc1
- emission maximum (in C1CCCCC1): 482 nm
- emission maximum (in CC#N): 506 nm
- emission maximum (in CO): 500 nm
- emission maximum (in ClCCl): 506 nm
- emission maximum (in O): 507 nm

SMILES: O=C1/C(=C2\Nc3cc4ccc5cccc6ccc(c3C2=O)c4c56)Nc2cc3ccc4cccc5ccc(c21)c3c45
- emission maximum (in C1CCOC1): 707 nm

SMILES: COc1ccc(-c2ccc(-c3ccc(OC)cc3)c3nc(-c4ccccc4)c(-c4ccccc4)nc23)cc1
- emission maximum (in C1CCOC1): 504 nm
- emission maximum (in CC#N): 512 nm
- emission maximum (in CCCCCC): 477 nm
- emission maximum (in CN(C)C=O): 514 nm
- emission maximum (in Cc1ccccc1): 492 nm
- emission maximum (in ClC(Cl)Cl): 502 nm

SMILES: N#CC(C#N)=Cc1ccc2nc(C#Cc3ccc(N(c4ccccc4)c4ccccc4)cc3)sc2c1
- emission maximum (in Cc1ccccc1): 535 nm

SMILES: F[B-]1(F)N(c2ccccc2)c2cccc3ccc4ccc[n+]1c4c23
- emission maximum (in ClCCl): 584 nm

SMILES: Cc1cc(O)c(C(=O)/C=C/c2ccc(O)c(O)c2)c(=O)o1
- emission maximum (in CC#N): 518 nm
- emission maximum (in ClCCl): 493 nm
